Holding throughout (assay type): physicochemical
A short description of data set [1]: Thin film of cream exposed to UVA light (photostability). Conditions: for effect of photostabilizer in nifedipine emulsion on stability of nifedipine to UVA light: photostabilizer incorporated at varying concentrations up to 3% w/w in nifedipine 2% w/w cream. The text has this:
(§1) Light Exposure: A UVA lamp was mounted 8.5 inches above a lab bench surface and the flux set to 740-750 μW/cm^2. This level of flux is roughly equivalent to a bright sunny day in mid-summer. […] The lamp apparatus was placed inside an enclosure with an access door, to prevent ambient light entering and for worker safety. For samples exposed to “ambient light”, these were placed on a laboratory bench where standard fluorescent lighting was used. […] To prevent drying, the samples were covered with Saran Wrap®, a plastic film that was determined to be UVA-transparent. After the allotted exposure time the cream was scraped off the slide for extraction with methanol. Samples which were exposed while in solution and not incorporated in a cream were dissolved in methanol as a 20 mL solution in a 100 mL beaker.
The sample was warmed in a water bath to 85° C. to melt lipids, followed by addition of 5 mL of methanol and vortex mixing. The samples were centrifuged at 14,000×g for 5 minutes and the supernatant retained for analysis.
Values reported represent mean±SD for triplicate measurements.

A short description of data set [2]: Mass spectrometry analysis of nifedipine and its photodegradants in UVA-exposed creams.
Description: as §1

Data set [3] can be described thus: Emulsion phase stability analysis (LUMiSizer photocentrifuge, instability index). The conditions noted are these: photocentrifuge 42° C., 12 hrs, versus emulsion without photostabilizers. Here is the method:
This allows for an approximation of the relative stability to phase separation of emulsions that differ in the type or percentage of photoprotectant and for confirming batch-to-batch consistency in stability against phase separation.^35 For each sample type, triplicate samples of 2 mL were loaded into photocentrifuge acrylic cuvettes. The samples were centrifuged at 42° C.×12 hrs. Phase separation was detected as an increase in light transmission at the top of the sample, which is interpreted as an “instability index” reflecting the rate of change of light transmission.

“Also recorded” adds a separate entry of the source.

Results on three molecules are retold here after patent US10543202B2 (University of Saskatchewan, priority 2017, dated 2020).

For `C[C@@H]1O[C@@H](OC[C@H]2O[C@@H](Oc3c(-c4ccc(O)c(O)c4)oc4cc(O)cc(O)c4c3=O)[C@H](O)[C@@H](O)[C@@H]2O)[C@H](O)[C@H](O)[C@H]1O` [rutin, 2-(3,4-dihydroxyphenyl)-5,7-dihydroxy-4-oxo-4H-chromen-3-yl 6-O-(6-deoxy-α-L-mannopyranosyl)-β-D-glucopyranoside], in data set [1] (2 h UVA exposure), the “difference in nifedipine concentration between preparations with and without rutin” value is given as “No significant difference”. Also, in data set [1] (concentrations up to 2% (w/w)), the “effectiveness as photoprotectant for nifedipine in O/W emulsion” value is on record as “ineffective”. The “effect of photostabilizer in nifedipine emulsion on stability of nifedipine to UVA light” value (“effect of photostabilizer … to UVA light” for short) in data set [1] was “not protected from photodegradation; also recorded: not effective”. Further, in data set [1] (rutin 0.5-3% (w/w), 20 mg thin film, over 3 hrs), the “reduction of UVA-induced degradation of nifedipine” value is “did not significantly reduce UVA-induced degradation of nifedipine”. In addition, in data set [2], the “alternative nifedipine degradation pathways in presence of photostabilizer” value is “no alternative degradation pathways identified”.

Consider `COc1ccc(C(=O)CC(=O)c2ccc(C(C)(C)C)cc2)cc1` [BMDBM, 1-(4-methoxyphenyl)-3-[4-(2-methyl-2-propanyl)phenyl]-1,3-propanedione], for which the “effect of photostabilizer … to UVA light” value in data set [1] is recorded as “moderately effective”. In addition, in data set [3], the “effect of photostabilizer on instability index / phase stability of nifedipine emulsion” value is reported as “reduced the instability; also recorded: increased the stability of the nifedipine emulsion”. For the same molecule, in data set [2], the “alternative nifedipine degradation pathways in presence of photostabilizer” value is recorded as “no alternative degradation pathways identified”.

Take `O=c1c(O)c(-c2ccc(O)c(O)c2)oc2cc(O)cc(O)c12` [quercetin, 2-(3,4-dihydroxyphenyl)-3,5,7-trihydroxy-4H-chromen-4-one]: the “effect of photostabilizer … to UVA light” value in data set [1] is recorded as “increased the stability of nifedipine to UVA light”. For the same molecule, the “effect of quercetin on photostability of nifedipine cream after UVA exposure” value in data set [1] (quercetin 0.5% w/w alone in nifedipine cream) is listed as “moderately effective; also recorded: photostability was improved”. The “effect of photostabilizer on instability index / phase stability of nifedipine emulsion” value in data set [3] was “reduced the instability; also recorded: increased the stability of the nifedipine emulsion”. The “alternative nifedipine degradation pathways in presence of photostabilizer” value in data set [2] is “no alternative degradation pathways identified”.
